{"source": "patent US20040019027A1", "about": "“Method of treating cerebrotendinous xanthomatosis” (priority 2002, published 2004)", "key": {"[1]": {"tested_on": "CYP3A", "conditions": "cited from earlier work"}, "[2]": {"target": "T1, human PXR ligand binding domain (Homo sapiens, UniProt O75469)", "T1 sequence (O75469 107-434)": "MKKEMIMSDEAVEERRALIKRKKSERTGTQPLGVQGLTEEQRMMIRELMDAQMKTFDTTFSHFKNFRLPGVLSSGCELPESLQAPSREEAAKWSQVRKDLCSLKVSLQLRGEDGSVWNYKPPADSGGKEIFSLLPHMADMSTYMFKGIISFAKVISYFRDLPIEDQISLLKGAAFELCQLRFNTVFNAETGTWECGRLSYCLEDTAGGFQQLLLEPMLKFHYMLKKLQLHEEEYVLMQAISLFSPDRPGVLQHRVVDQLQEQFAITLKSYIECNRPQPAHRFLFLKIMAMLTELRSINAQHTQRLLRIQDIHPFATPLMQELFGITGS", "assay": "In vitro ligand displacement assay with [3H]SR12813", "conditions": "37.5 nM [3H]SR12813; 5 μM hyperforin, 30 μM Triol, 30 μM Tetrol; FIG. 4", "experimental": "The amount of [^3H]SR12813 associated with human PXR is expressed in cpm.\nTo determine whether a molecule or compound interacts directly with a PXR or is a PXR ligand, an in vitro ligand displacement assay is commonly used. […] In the ligand displacement assay, the ligand binding domain of a PXR is synthesized or expressed and purified. A known PXR ligand is radio-labeled and incubated with the purified ligand binding domain of the PXR. A molecule or compound suspected to be a PXR ligand is then added into the incubated mixture. Radioactivity reading is taken using a scintillation counter. If the molecule or compound competes with the known PXR ligand for the ligand binding domain of the PXR, the molecule or compound is expected to displace some of the radio-labeled known PXR agonist and reduce the radioactivity reading. Accordingly, the reduction of radioactivity reading indicates whether the molecule or compound is a PXR ligand and the extent to which the molecule or compound competes with the known PXR ligand.\nAn in vitro ligand displacement assay was used to determine whether 5β-cholestane-3α, 7α, 12α-triol interacts directly with the ligand binding domain of PXR. Because radiolabeled [^3H]SR12813 are available for human PXR but not mouse PXR, human PXR was used to examine whether 5β-cholestane-3α, 7α, 12α-triol could compete for binding of human PXR to a tritiated SR12813. […]"}, "[3]": {"target": "T2, mouse PXR (Mus musculus, UniProt O54915)", "T2 sequence (O54915 104-431)": "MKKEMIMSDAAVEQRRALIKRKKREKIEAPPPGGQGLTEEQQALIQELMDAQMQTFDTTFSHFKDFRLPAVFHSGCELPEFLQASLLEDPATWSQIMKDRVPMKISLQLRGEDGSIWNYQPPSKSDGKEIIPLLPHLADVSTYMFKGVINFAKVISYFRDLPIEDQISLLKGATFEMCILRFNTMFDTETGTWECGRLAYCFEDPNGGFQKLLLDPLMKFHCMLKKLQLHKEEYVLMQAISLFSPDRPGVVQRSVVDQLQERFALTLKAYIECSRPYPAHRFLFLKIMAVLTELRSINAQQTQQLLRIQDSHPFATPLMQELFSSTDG", "assay": "GAL-mouse PXR luciferase reporter gene assay in transfected CV-1 cells", "format": "cell-based", "conditions": "for activation of GAL-mouse PXR (in words) / fold activation of GAL-mouse PXR: 10 μM; for activation of GAL-mouse PXR (in words): CV-1 cells, FIG. 3(a), FIG. 8(a)", "experimental": "(§1) CV-1 cells were transiently transfected with a GAL-mouse PXR expression vector, a GAL4 reporter construct, and a β-galactosidase vector as an internal control. Where noted, the bile acid transporter NTCP was added to the transfection to promote the transport of membrane-impermeable bile acids. Transfected cells were exposed to the indicated compounds (10 μM each), and fold activation was determined using luciferase and β-galactosidase enzyme activity assays. […] The transfected CV-1 cells were treated with multiple concentrations of each sterol. Error bars in this figure and subsequent figures represent the standard error of the mean (SEM) from representative experiments.\nIt is questioned whether β-cholestane-3α, 7α, 12α-triol (Triol) levels were elevated in whole liver extracts from CYP27 −/− mice. To show the level of 5β-cholestane-3α, 7α, 12α-triol in mouse liver extract, wild-type or CYP27 −/−mouse liver tissue (0.5 g) was extracted with 7.5 ml of ethyl acetate/methanol (2:1, vol/vol) along with 5β-cholestane-3β,5α,6β-triol (25 μg) as an internal control for extraction efficiency. […] The extraction was repeated three times, and the organic fraction was pooled and evaporated. To remove the vast excess of cholesterol that interferes with subsequent gas chromatography-mass spectroscopy analysis, the evaporated residue was dissolved in 0.5 ml of chloroform/acetone (35:25, vol/vol) and applied to a Bond Elut SI cartridge (Varian, 500 mg). Cholesterol was removed by washing with 6 ml of chloroform/acetone (35:25, vol/vol), and sterols were eluted with 7 ml of chloroform/acetone/methanol (35:25:20, vol/vol/vol). The sterol fraction was evaporated and dissolved in acetonitrile, and a portion was silylated with N,O-bis(trimethylsilyl)-trifluoroacetamide containing 1% trimethylchlorosilane (Pierce). The silylated material was analyzed by using a Shimadzu model GC-17A gas chromatograph with a QP5000 mass spectral detector and a Hewlett-Packard Ultra 2 (cross-linked-siloxane) column. The injector port was kept at 250° C., interface temperature was kept at 280° C., and oven temperature was kept at 50° C. followed by a gradient of 30° C. min^−1 up to 300° C. The electron impact ionization source was at 70 eV. 5β-cholestane-3α, 7α, 12α-triol levels were determined by comparison to a standard curve. For transfection studies, the sterol fraction was dissolved in DMSO and added to the cell-culture media. containing DMEM with 10% delipidated FBS."}, "[4]": {"target": "T3, full-length mouse PXR (Mus musculus, UniProt O54915)", "T3 sequence (O54915 1-431)": "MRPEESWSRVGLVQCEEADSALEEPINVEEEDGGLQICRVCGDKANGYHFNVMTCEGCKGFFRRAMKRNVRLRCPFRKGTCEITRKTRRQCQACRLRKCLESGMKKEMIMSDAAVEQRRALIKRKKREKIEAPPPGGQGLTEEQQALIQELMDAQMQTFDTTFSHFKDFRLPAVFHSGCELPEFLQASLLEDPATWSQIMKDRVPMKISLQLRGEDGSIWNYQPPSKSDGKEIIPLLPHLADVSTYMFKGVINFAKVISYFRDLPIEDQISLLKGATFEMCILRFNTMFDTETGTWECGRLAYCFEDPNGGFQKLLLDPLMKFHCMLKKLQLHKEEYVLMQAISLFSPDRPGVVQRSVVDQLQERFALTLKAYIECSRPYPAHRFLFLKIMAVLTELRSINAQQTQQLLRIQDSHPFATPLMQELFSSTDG", "assay": "Full-length mouse PXR reporter assay with rat cyp3a regulatory element in CV-1 cells", "format": "cell-based", "conditions": "10 μM, FIG. 3(b)", "experimental": "as §1, with “assays. PCN refers to pregnenolone-16α-carbonitrile which is an effective agonist to mouse PXR.” for “assays.”, “experiments. In some cases, the error bars are not visible because they are negligible relative to the scale of the figure” for “experiments.”\nTo further confirm that 5β-cholestane-3α, 7α, 12α-triol and 5β-cholestan-3α, 7α, 12α, 25-tetrol activate mouse PXR, the effect of these compounds on full-length mouse PXR was examined using a reporter construct containing a regulatory element from the rat cyp3a gene that binds to the DNA binding domain of mouse PXR. Blumberg et al., SXR, a novel steroid and xenobioticsensing nuclear receptor, Gene & Dev. 12: 3195-3205 (1998)."}, "[5]": {"tested_on": "CYP3A4", "conditions": "reported by Furster & Wikvall 1999; read-out: Michaelis constant (Km) as a CYP3A4 substrate; cited from earlier work"}, "[6]": {"tested_on": "mice", "assay": "Tribromoethanol-induced sleep test", "format": "in vivo, mouse", "conditions": "i.p. 0.35 mg/g", "excerpt": "Wild type and cyp27-null mice received an i.p. injection of tribromoethanol, and their individual sleep times are plotted. Wild type mice are represented by squares and CYP27-null mice (CYP27 −/−) are represented by circles. Wild type male, n=6; cyp27-1-male, n=5; Wild type female, n=6; cyp27-1-female, n=6. **, P<0.01; ***, P<0.001.\nBecause PXR is a master regulator of small-molecule clearance, continuous activation of PXR in CYP27-null mice should produce a physiologic state of enhanced resistance to endogenous and exogenous toxins. To test this in a physiological setting, mice received an i.p. injection of the anesthetic agent tribromoethanol (0.35 mg/g of body weight). Drug-induced anesthesia was measured until the animals had regained sufficient consciousness to fully right themselves. […] Thus, the tribromoethanol-induced sleep test provides a direct and quantitative measure of hepatic PXR activity in live animals. […] In female mice, the difference was even more significant: 35.8±1.6 min for CYP27-null mice compared with 49.6±2.0 min for WT (P<0.001). […] When 5β-cholestane-3α, 7α, 12α-triol itself is accumulating to pathological levels, the ability of this sterol to activate cyp3a11 (FIG. 5) becomes highly significant as CYP3A establishes an alternate or salvage pathway for the elimination of excess 5β-cholestane-3α, 7α, 12α-triol (FIG. 1). […]"}}, "data": [{"smiles": "COc1cc2c(cc1O)CCN[C@]21CS[C@@H]2c3c(OC(C)=O)c(C)c4c(c3[C@H](COC1=O)N1[C@@H]2[C@H]2c3c(cc(C)c(OC)c3O)C[C@@H]([C@@H]1O)N2C)OCO4", "note": "[ET-743, Ecteinascidin-743]", "values": [{"measurement": "inhibition of the induction of CYP3A by SR12813 (in words)", "setting": "[1]", "value": "completely inhibits"}]}, {"smiles": "CC(CCC[C@@H](C)[C@H]1CC[C@H]2[C@@H]3[C@H](O)C[C@@H]4C[C@H](O)CC[C@]4(C)[C@H]3C[C@H](O)[C@]12C)C(=O)O", "note": "(stereo partly drawn) [5β-cholestanoic acid-3α,7α,12α-triol]", "values": [{"measurement": "displacement of [3H]SR12813 from human PXR (in words)", "setting": "[2]", "value": "failed to displace"}, {"measurement": "activation of GAL-mouse PXR (in words)", "setting": "[3]", "value": "failed to activate mouse PXR"}]}, {"smiles": "C[C@H](CCCC(C)(C)O)[C@H]1CC[C@H]2[C@@H]3[C@H](O)C[C@@H]4C[C@H](O)CC[C@]4(C)[C@H]3C[C@H](O)[C@]12C", "note": "[5β-cholestane-3α, 7α, 12α, 25-tetrol]", "values": [{"measurement": "fold activation of GAL-mouse PXR", "setting": "[3]", "value": 16, "unit": "fold"}]}, {"smiles": "CC(C)CCC[C@@H](C)[C@H]1CC[C@H]2[C@@H]3C[C@@H](O)[C@@]4(O)C[C@@H](O)CC[C@]4(C)[C@H]3CC[C@]12C", "note": "[5β-cholestane-3β,5α,6β-triol]", "values": [{"measurement": "activation of GAL-mouse PXR (in words)", "setting": "[3]", "value": "does not activate mouse PXR"}]}, {"smiles": "C[C@H](CCC(=O)O)[C@H]1CC[C@H]2[C@@H]3[C@H](O)C[C@@H]4C[C@H](O)CC[C@]4(C)[C@H]3CC[C@]12C", "note": "[chenodeoxycholic acid]", "values": [{"measurement": "activation of GAL-mouse PXR (in words)", "setting": "[3]", "value": "failed to activate mouse PXR"}]}, {"smiles": "CC(C)CCC[C@@H](C)[C@H]1CC[C@H]2[C@@H]3[C@H](O)C[C@@H]4C[C@H](O)CC[C@]4(C)[C@H]3C[C@H](O)[C@]12C", "note": "[5β-cholestane-3α, 7α, 12α-triol]", "values": [{"measurement": "activation of full-length mouse PXR (in words)", "setting": "[4]", "value": "activated full-length mouse PXR"}, {"measurement": "EC50", "setting": "[3]", "value": "≥ 3", "unit": "µM"}, {"measurement": "fold activation of GAL-mouse PXR", "setting": "[3]", "value": 31, "unit": "fold"}, {"measurement": "Km", "setting": "[5]", "value": 6, "unit": "µM"}]}, {"smiles": "OCC(Br)(Br)Br", "note": "[tribromoethanol]", "values": [{"measurement": "time to awakening after tribromoethanol (mean±SEM)", "setting": "[6]; female CYP27-null mice", "value": "35.8 ± 1.6", "unit": "min"}, {"measurement": "time to awakening after tribromoethanol (mean±SEM)", "setting": "[6]; female WT mice", "value": "49.6 ± 2.0", "unit": "min"}, {"measurement": "time to awakening after tribromoethanol (mean±SEM)", "setting": "[6]; male CYP27-null mice", "value": "30.6 ± 2.9", "unit": "min"}, {"measurement": "time to awakening after tribromoethanol (mean±SEM)", "setting": "[6]; male WT mice", "value": "42.2 ± 1.9", "unit": "min"}]}]}
